Experiments:
α2 -adrenoceptor = test: Xylazine-induced loss of righting reflex in rats; assay type: in vivo; settings: one hour before xylazine 15 mg/kg i.v., male rats, lowest tested dose at which at least 66% of animals showed no loss of righting reflex
Procedure: This test is based upon the fact that centrally acting α2 -adrenoceptor antagonists reverse the loss of righting reflex induced by an intravenous injection of the α2 agonist xylazine. One hour before injection of xylazine (15 mg/kg, i.v.), male rats (200-250 g) were pretreated with a test compound (er os (p.o.) or subcutaneously (s.c.)) or solvent.

[1] = target: T1, cloned human α2B receptors (Homo sapiens, UniProt P18089); test: In vitro binding affinity for α2B receptors (3H-rauwolscine competition binding); settings: at a test concentration of 10^-8 M or less; CHO cell expressing cloned human α2B receptors
T1 construct: expressed in transfected cells; host or cells: CHO cells
T1 sequence (P18089 1-450): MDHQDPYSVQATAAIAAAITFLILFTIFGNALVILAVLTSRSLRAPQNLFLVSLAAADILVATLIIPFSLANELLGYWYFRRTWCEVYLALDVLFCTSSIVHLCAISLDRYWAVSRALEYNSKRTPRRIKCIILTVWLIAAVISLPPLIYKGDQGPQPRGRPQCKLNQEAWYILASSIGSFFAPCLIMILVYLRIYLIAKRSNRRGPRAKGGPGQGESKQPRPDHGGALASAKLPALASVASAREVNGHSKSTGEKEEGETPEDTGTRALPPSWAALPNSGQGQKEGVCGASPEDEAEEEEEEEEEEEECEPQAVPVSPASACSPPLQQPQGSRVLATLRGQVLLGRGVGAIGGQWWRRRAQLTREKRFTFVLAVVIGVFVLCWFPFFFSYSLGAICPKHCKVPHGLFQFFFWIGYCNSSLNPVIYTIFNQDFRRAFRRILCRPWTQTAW
Procedure: (§1) The interaction of the compounds of formula (I) with α2 receptors was assessed in in vitro radioligand binding experiments.
(§2) In general, a low concentration of a radioligand with a high binding affinity for a particular receptor is incubated with a sample of a tissue preparation enriched in a particular receptor or with a preparation of cells expressing cloned human receptors in a buffered medium. During the incubation, the radioligand binds to the receptor. When equilibrium of binding is reached, the receptor bound radioactivity is separated from the non-bound radioactivity, and the receptor bound activity is counted. The interaction of the test compounds with the receptor is assessed in competition binding experiments. Various concentrations of the test compound are added to the incubation mixture containing the receptor preparation and the radioligand. Binding of the radioligand will be inhibited by the test compound in proportion to its binding affinity and its concentration.
The radioligand used for α2B receptor binding is ^3 H-rauwolscine and the receptor preparation used is the CHO cell expressing cloned human α2B receptors.

[2] = target: T2, cloned human α2A receptors (Homo sapiens, UniProt P08913); test: In vitro binding affinity for α2A receptors (3H-rauwolscine competition binding); settings: at a test concentration of 10^-8 M or less; CHO cell expressing cloned human α2A receptors
T2 sequence (P08913 1-465): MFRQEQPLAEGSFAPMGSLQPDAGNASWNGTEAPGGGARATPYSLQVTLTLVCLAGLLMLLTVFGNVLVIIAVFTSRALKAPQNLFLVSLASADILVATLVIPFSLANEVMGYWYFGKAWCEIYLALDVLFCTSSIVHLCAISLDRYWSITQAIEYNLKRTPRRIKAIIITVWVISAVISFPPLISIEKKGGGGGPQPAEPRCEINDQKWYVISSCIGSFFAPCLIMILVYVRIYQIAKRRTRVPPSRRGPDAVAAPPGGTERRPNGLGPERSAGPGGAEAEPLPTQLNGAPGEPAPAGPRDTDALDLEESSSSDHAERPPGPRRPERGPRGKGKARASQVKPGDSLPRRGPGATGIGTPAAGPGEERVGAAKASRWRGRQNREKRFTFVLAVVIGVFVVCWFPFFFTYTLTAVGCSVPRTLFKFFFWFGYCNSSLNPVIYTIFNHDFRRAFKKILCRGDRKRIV
Procedure: as §1, §2
The radioligand used for α2A receptor binding is ^3 H-rauwolscine and the receptor preparation used is the Chinese Hamster Ovary (CHO) cell expressing cloned human α2A receptors.

[3] = target: T3, cloned human α2C receptors (Homo sapiens, UniProt P18825); test: In vitro binding affinity for α2C receptors (3H-rauwolscine competition binding); settings: at a test concentration of 10^-8 M or less; CHO cell expressing cloned human α2C receptors
T3 construct: expressed in transfected cells; host or cells: CHO cells
T3 sequence (P18825 1-462): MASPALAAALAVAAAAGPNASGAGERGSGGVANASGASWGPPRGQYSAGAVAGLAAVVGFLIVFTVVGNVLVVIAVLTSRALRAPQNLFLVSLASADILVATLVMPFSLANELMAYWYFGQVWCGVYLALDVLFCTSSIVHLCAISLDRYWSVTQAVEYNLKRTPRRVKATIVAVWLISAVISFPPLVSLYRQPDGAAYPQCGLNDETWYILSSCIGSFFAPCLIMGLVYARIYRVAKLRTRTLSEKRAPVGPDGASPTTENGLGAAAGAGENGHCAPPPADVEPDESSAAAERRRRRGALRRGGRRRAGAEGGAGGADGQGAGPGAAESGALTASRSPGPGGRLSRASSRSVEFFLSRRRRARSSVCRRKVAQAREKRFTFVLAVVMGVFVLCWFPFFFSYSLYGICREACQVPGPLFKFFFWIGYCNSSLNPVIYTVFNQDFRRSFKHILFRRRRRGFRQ

O=c1c(CCN2CCc3oc4ccccc4c3C2)c(-c2ccccc2)nc2n1CCCC2 [Compound 10]
LAD in mg/kg (lowest active dose for xylazine antagonism) (α2 -adrenoceptor; s.c.): 10.00 mg/kg | inhibition at up to 0.01 µM [1]: > 50% | inhibition [2]: > 50% | inhibition at up to 0.01 µM [3]: > 50%

Cc1nc2n(C)c(C)cn2c(=O)c1CCN1CCc2oc3ccccc3c2C1 [Compound 30]
LAD in mg/kg (lowest active dose for xylazine antagonism) (α2 -adrenoceptor; s.c.): 2.50 mg/kg | inhibition at up to 0.01 µM [1]: > 50%

Cc1nc2ccc(Br)cn2c(=O)c1CCN1CCc2oc3ccccc3c2C1 [Compound 31]
LAD in mg/kg (lowest active dose for xylazine antagonism) (α2 -adrenoceptor; s.c.): 0.16 mg/kg | inhibition at up to 0.01 µM [1]: > 50%

Cc1nc2c(C)cccn2c(=O)c1CCN1CCc2oc3ccccc3c2C1 [Compound 33]
LAD in mg/kg (lowest active dose for xylazine antagonism) (α2 -adrenoceptor; s.c.): 10.00 mg/kg | inhibition at up to 0.01 µM [1]: > 50% | inhibition [2]: > 50% | inhibition at up to 0.01 µM [3]: > 50%

O=c1[nH]c2ccccc2n1CCN1CCc2oc3ccccc3c2C1 [Compound 52]
LAD in mg/kg (lowest active dose for xylazine antagonism) (α2 -adrenoceptor; s.c.): 10.00 mg/kg | inhibition at up to 0.01 µM [1]: > 50% | inhibition [2]: > 50% | inhibition at up to 0.01 µM [3]: > 50%

O=c1[nH]c2ccccc2n1CCCN1CCc2oc3ccccc3c2C1 [Compound 53]
inhibition at up to 0.01 µM [1]: > 50% | inhibition [2]: > 50% | inhibition at up to 0.01 µM [3]: > 50%

CSc1nc(C)c(CCN2CCc3oc4ccccc4c3C2)c(=O)n1C [Compound 56]
inhibition at up to 0.01 µM [1]: > 50%

Cc1nc2sc3ccccc3n2c(=O)c1CCN1CCc2oc3ccccc3c2C1 [Compound 62]
LAD in mg/kg (lowest active dose for xylazine antagonism) (α2 -adrenoceptor; p.o.): 10.00 mg/kg | inhibition at up to 0.01 µM [1]: > 50% | inhibition [2]: > 50% | inhibition at up to 0.01 µM [3]: > 50%

O=c1[nH]c2ccccc2c(=O)n1CCCCN1CCc2oc3ccccc3c2C1 [Compound 63]
inhibition at up to 0.01 µM [1]: > 50% | inhibition [2]: > 50% | inhibition at up to 0.01 µM [3]: > 50%

Cc1nc2ccccn2c(=O)c1CCN1CCc2oc3ccccc3c2C1 [Compound 66]
LAD in mg/kg (lowest active dose for xylazine antagonism) (α2 -adrenoceptor; s.c.): 0.63 mg/kg | inhibition at up to 0.01 µM [1]: > 50% | inhibition [2]: > 50% | inhibition at up to 0.01 µM [3]: > 50%

Reference: patent publication US6156757A, “1,2,3,4-tetrahydro-benzofuro[3,2-C]pyridine derivatives” (Janssen Pharmaceutica N.V., priority 1997, dated 2000)
